From PubChem BioAssay AID330 (DTP/NCI, 2004)
“And” between values parts separate entries of the source, which are not always exact repeats. Equal entries are not always repeated. Inconclusive results and toxic doses are left out.

Tested on: P388 leukemia ip, CD2F1 mice, survival T/C
Experiment: NCI In Vivo Anticancer Drug Screen. Data for tumor model P388 Leukemia (intraperitoneal) in CD2F1 (CDF1) mice
Conditions: endpoint: median survival time, higher = longer survival
In short: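 Mice carrying the transplanted tumor received test compound or vehicle. Survival was recorded in each group, and the value is the treated-group measurement divided by that of the vehicle-treated control group.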

[1] = dose: 6.25 mg/kg/injection, schedule: Q01DX009 (ip), vehicle: saline
[2] = dose: 12.5 mg/kg/injection, schedule: Q01DX009 (ip), vehicle: saline
[3] = dose: 25.0 mg/kg/injection, schedule: Q01DX009 (ip), vehicle: saline with Tween-80
[4] = dose: 25.0 mg/kg/injection, schedule: Q01DX009 (ip), vehicle: saline
[5] = dose: 100.0 mg/kg/injection, schedule: Q01DX001 (ip), vehicle: saline with Tween-80
[6] = dose: 200.0 mg/kg/injection, schedule: Q01DX001 (ip), vehicle: saline with Tween-80
[7] = dose: 400.0 mg/kg/injection, schedule: Q01DX001 (ip), vehicle: saline with Tween-80
[8] = dose: 60.0 mg/kg/injection, schedule: Q01DX005 (ip), vehicle: saline with Tween-80
[9] = dose: 120.0 mg/kg/injection, schedule: Q01DX005 (ip), vehicle: saline with Tween-80
[10] = dose: 50.0 mg/kg/injection, schedule: Q01DX009 (ip), vehicle: saline
[11] = dose: 240.0 mg/kg/injection, schedule: Q01DX005 (ip), vehicle: saline with Tween-80
[12] = dose: 50.0 mg/kg/injection, schedule: Q01DX009 (ip), vehicle: saline with Tween-80
[13] = dose: 100.0 mg/kg/injection, schedule: Q01DX009 (ip), vehicle: saline with Tween-80
[14] = dose: 200.0 mg/kg/injection, schedule: Q01DX009 (ip), vehicle: saline with Tween-80

Compound: CN1CCNc2c1cc(O)c1c2C(=O)c2ccccc2C1=O
- T/C (dose: 100.0 mg/kg/injection, schedule: Q01DX001 (ip), vehicle: Klucel (hydroxypropylcellulose) (HPC)): 101 % of control
- T/C (dose: 200.0 mg/kg/injection, schedule: Q01DX001 (ip), vehicle: Klucel (hydroxypropylcellulose) (HPC)): 94 % of control
- T/C (dose: 400.0 mg/kg/injection, schedule: Q01DX001 (ip), vehicle: Klucel (hydroxypropylcellulose) (HPC)): 98 % of control

Compound: S=C(S)N1CCCCC1
- T/C (dose: 3.13 mg/kg/injection, schedule: Q01DX009 (ip), vehicle: saline): 88 % of control
- T/C [1]: 91 % of control
- T/C [2]: 86 % of control
- T/C [3]: 91 % of control
- T/C [4]: 86 % of control

Compound: O=C(O)c1cccc(Cl)c1 (tested in a mixture with another compound)
- T/C [5]: 94 % of control
- T/C [6]: 99 % of control
- T/C [7]: 95 % of control

Compound: COC(=O)Cn1/c(=N\N=C(/C)c2ccc(C)cc2)sc2ccccc21
- T/C [5]: 95 % of control
- T/C [6]: 91 % of control

Compound: Cc1nc2ccccc2c2c1C(=O)c1ccccc1-2
- T/C (dose: 100.0 mg/kg/injection, schedule: Q04DX002 (ip), vehicle: Klucel (hydroxypropylcellulose) (HPC)): 96 % of control
- T/C (dose: 200.0 mg/kg/injection, schedule: Q04DX002 (ip), vehicle: Klucel (hydroxypropylcellulose) (HPC)): 89 % of control
- T/C (dose: 400.0 mg/kg/injection, schedule: Q04DX002 (ip), vehicle: Klucel (hydroxypropylcellulose) (HPC)): 89 % of control

Compound: CN1C(=O)C2CCC(=O)N2C(=S)N(C)C1=S (stereo not given)
- T/C [8]: 106 % of control
- T/C [9]: 104 % of control

Compound: c1cc2ccc1CSCCCSCc1ccc(cc1)CSCCCSC2
- T/C (dose: 25.0 mg/kg/injection, schedule: Q01DX009 (ip), vehicle: suspension in saline): 100 % of control
- T/C (dose: 50.0 mg/kg/injection, schedule: Q01DX009 (ip), vehicle: suspension in saline): 92 % of control
- T/C (dose: 100.0 mg/kg/injection, schedule: Q01DX009 (ip), vehicle: suspension in saline): 98 % of control

Compound: CN(C)CC(CN(C)C)C(=O)c1ccccc1
- T/C (dose: 3.12 mg/kg/injection, schedule: Q01DX009 (ip), vehicle: saline): 103 % of control and 105 % of control
- T/C [1]: 105 % of control (2×) and 122 % of control
- T/C [2]: 107 % of control and 117 % of control and 112 % of control
- T/C [4]: 117 % of control [middle of 5 runs]
- T/C [10]: 124 % of control

Compound: CC1(N)C(=O)NC(=O)c2cnccc21 (stereo not given)
- T/C (dose: 100.0 mg/kg/injection, schedule: Q01DX001 (ip), vehicle: saline): 104 % of control
- T/C (dose: 200.0 mg/kg/injection, schedule: Q01DX001 (ip), vehicle: saline): 107 % of control
- T/C (dose: 400.0 mg/kg/injection, schedule: Q01DX001 (ip), vehicle: saline): 97 % of control

Compound: COc1ccc(OC)c(C2N(Cc3ccccc3N(C)C)CCCN2Cc2ccccc2N(C)C)c1
- T/C (dose: 50.0 mg/kg/injection, schedule: Q04DX003 (ip), vehicle: saline with Tween-80): 91 % of control
- T/C (dose: 100.0 mg/kg/injection, schedule: Q04DX003 (ip), vehicle: saline with Tween-80): 87 % of control

Compound: O=C1c2c(ccc3ccccc23)CN2CCCCC12 (stereo not given)
- T/C [8]: 101 % of control
- T/C [9]: 103 % of control
- T/C [11]: 103 % of control

Compound: O=C(O)C12CCC(c3ccccc31)c1ccccc12
- T/C [8]: 101 % of control
- T/C [9]: 107 % of control
- T/C [11]: 100 % of control

Compound: COc1cccc2c1C(=O)c1c(O)c3c(c(O)c1C2=O)CC(O)(C(=O)CO)CC3OC1CC(N(Cc2ccccc2)Cc2ccccc2)C(O)C(C)O1 (stereo not given)
- T/C (dose: 0.2 mg/kg/injection, schedule: Q01DX009 (ip), vehicle: water): 115 % of control
- T/C (dose: 1.56 mg/kg/injection, schedule: Q01DX009 (ip), vehicle: water): 151 % of control
- T/C (dose: 3.13 mg/kg/injection, schedule: Q01DX009 (ip), vehicle: water): 156 % of control
- T/C (dose: 6.25 mg/kg/injection, schedule: Q01DX009 (ip), vehicle: water): 175 % of control

Compound: COc1cccc(C(=O)NC(=O)NC(=O)c2ccccc2)c1
- T/C (dose: 100.0 mg/kg/injection, schedule: Q04DX002 (ip), vehicle: saline with Tween-80): 100 % of control
- T/C (dose: 200.0 mg/kg/injection, schedule: Q04DX002 (ip), vehicle: saline with Tween-80): 93 % of control
- T/C (dose: 400.0 mg/kg/injection, schedule: Q04DX002 (ip), vehicle: saline with Tween-80): 93 % of control

Compound: CCOc1ccc(N=C2C=C(Nc3ccc(OCC)cc3)C(=Nc3ccc(OCC)cc3)C=C2Nc2ccc(OCC)cc2)cc1
- T/C [8]: 96 % of control
- T/C [9]: 95 % of control
- T/C [11]: 92 % of control

Compound: Cc1ccc2c(c1)sc1n[nH]c(=S)n12
- T/C (dose: 50.0 mg/kg/injection, schedule: Q01DX009 (ip), vehicle: Klucel (hydroxypropylcellulose) (HPC)): 100 % of control
- T/C (dose: 100.0 mg/kg/injection, schedule: Q01DX009 (ip), vehicle: Klucel (hydroxypropylcellulose) (HPC)): 100 % of control
- T/C (dose: 200.0 mg/kg/injection, schedule: Q01DX009 (ip), vehicle: Klucel (hydroxypropylcellulose) (HPC)): 100 % of control

Compound: CCN(CC)CC[n+]1ccc2c(C)c3[nH]c4ccccc4c3c(C)c2c1
- T/C (dose: 0.63 mg/kg/injection, schedule: Q04DX002 (ip), vehicle: water): 110 % of control
- T/C (dose: 0.78 mg/kg/injection, schedule: Q04DX003 (ip), vehicle: water): 106 % of control
- T/C (dose: 1.25 mg/kg/injection, schedule: Q04DX002 (ip), vehicle: water): 115 % of control
- T/C (dose: 1.56 mg/kg/injection, schedule: Q04DX003 (ip), vehicle: water): 107 % of control and 120 % of control
- T/C (dose: 2.5 mg/kg/injection, schedule: Q04DX002 (ip), vehicle: water): 122 % of control
- T/C (dose: 3.12 mg/kg/injection, schedule: Q04DX003 (ip), vehicle: water): 123 % of control
- T/C (dose: 6.25 mg/kg/injection, schedule: Q04DX003 (ip), vehicle: water): 124 % of control
- T/C (dose: 12.5 mg/kg/injection, schedule: Q04DX003 (ip), vehicle: water): 124 % of control

Compound: CCOC(=O)/C(C#N)=N/O
- T/C [1]: 104 % of control and 114 % of control and 90 % of control
- T/C [2]: 102 % of control and 104 % of control and 95 % of control
- T/C [4]: 111 % of control and 97 % of control
- T/C [10]: 101 % of control and 104 % of control and 107 % of control

Compound: N#C/C(=C\c1ccncc1)c1ccccc1
- T/C (dose: 3.13 mg/kg/injection, schedule: Q01DX009 (ip), vehicle: saline with Tween-80): 90 % of control
- T/C (dose: 6.25 mg/kg/injection, schedule: Q01DX009 (ip), vehicle: saline with Tween-80): 95 % of control
- T/C (dose: 12.5 mg/kg/injection, schedule: Q01DX009 (ip), vehicle: saline with Tween-80): 92 % of control
- T/C [3]: 109 % of control

Compound: Cc1cc(C)c(S(=O)(=O)NN)c(C)c1
- T/C [3]: 104 % of control
- T/C [12]: 104 % of control
- T/C [13]: 100 % of control
- T/C [14]: 95 % of control

Compound: O=C(O)c1c(C(=O)O)c2cccn2c2c1cnn2-c1ccccc1
- T/C [8]: 102 % of control
- T/C [9]: 100 % of control
- T/C [11]: 100 % of control

Compound: Cc1ccc(NC(=S)NC2C(=O)Nc3ccccc32)cc1 (stereo not given)
- T/C [5]: 92 % of control
- T/C [6]: 93 % of control
- T/C [7]: 87 % of control

Compound: CCN(CC)Cc1cc(Nc2cc(Cl)c3ccc(N(C)C)cc3n2)ccc1O
- T/C [2]: 110 % of control
- T/C [4]: 110 % of control
- T/C [10]: 109 % of control and 110 % of control

Compound: NC(N)=N/N=C/c1ccc(-c2cc3ccc(/C=N/N=C(N)N)cc3s2)cc1
- T/C (dose: 12.5 mg/kg/injection, schedule: Q01DX005 (ip), vehicle: Klucel (hydroxypropylcellulose) (HPC)): 114 % of control
- T/C (dose: 25.0 mg/kg/injection, schedule: Q01DX005 (ip), vehicle: Klucel (hydroxypropylcellulose) (HPC)): 116 % of control
- T/C (dose: 50.0 mg/kg/injection, schedule: Q01DX005 (ip), vehicle: Klucel (hydroxypropylcellulose) (HPC)): 121 % of control
- T/C (dose: 100.0 mg/kg/injection, schedule: Q01DX005 (ip), vehicle: Klucel (hydroxypropylcellulose) (HPC)): 118 % of control
- T/C (dose: 200.0 mg/kg/injection, schedule: Q01DX005 (ip), vehicle: Klucel (hydroxypropylcellulose) (HPC)): 107 % of control

Compound: CC1=Nc2ccccc2SC2(C1)C(C1COC(C)(C)O1)OC1OC(C)(C)OC12 (stereo not given)
- T/C (dose: 50.0 mg/kg/injection, schedule: Q01DX005 (ip), vehicle: saline with Tween-80): 93 % of control
- T/C (dose: 100.0 mg/kg/injection, schedule: Q01DX005 (ip), vehicle: saline with Tween-80): 94 % of control
- T/C (dose: 200.0 mg/kg/injection, schedule: Q01DX005 (ip), vehicle: saline with Tween-80): 92 % of control

Compound: CCCCCCC(=O)/C=C/c1ccc([N+](=O)[O-])cc1
- T/C [12]: 99 % of control
- T/C [13]: 99 % of control
- T/C [14]: 92 % of control
